Test results as given in US10077293B2, “Antimicrobial peptide analogues derived from abalone (Haliotis discus) and antimicrobial pharmaceutical composition containing the same” (priority 2016, dated 2018).
Ends that are not written are not given here.

Tests used:
human red blood cells = assay type: cell-based
Protocol: Hemolytic activity was measured using human red blood cells. After adding to human blood an equal amount of phosphate buffered saline (PBS, 50 mM sodium phosphate, 150 mM NaCl, pH 7.4), mixing and centrifuging at 8000×g and 4° C. for 1 minute, the supernatant was removed and the remaining red blood cells were washed 3 times. The red blood cells were added to PBS to a concentration of 3% hematocrit. In order to measure the hemolytic activity, 90 μL of the 3% hematocrit was introduced to an e-tube and then 10 μL of each analogue solution (×10) was added. After incubation of each e-tube at 37° C. for 1 hour, centrifugation was performed at 13,000×g and 4° C. for 10 minutes. After taking 70 μL from each supernatant and transferring to a 96-well microtiter plate, release of hemoglobin was measured at 405 nm. Triton X-100 (0.1%) was used as a control group for 100% lysis of red blood cells and the hemolytic activity was calculated according to the following equation. % Hemolysis=[(Abs 405 nm in the peptide solution−Abs 405 nm in buffer)/(Abs 405 nm in 0.1% Triton X-100−Abs 405 nm in buffer)]×100

S. mutans KCCM40105 = experiment: Ultrasensitive radial diffusion assay (URDA), antimicrobial activity; assay type: cell-based, Streptococcus mutans; settings: S. mutans KCCM40105, Gram +
Protocol: (§1) Four species of Gram positive bacteria (Bacillus subtilis, Staphylococcus epidermidis, […] and Propionibacterium acnes), five species of Gram negative bacteria (E. coli D31, E. coli ML35p, Shigella flexneri, Pseudomonas aeruginosa and Vibrio parahaemolyticus) and one yeast species (Candida albicans) were used for experiments. The antimicrobial activity was measured by ultrasensitive radial diffusion assay (URDA) using two layers of media of different concentrations. First, the microorganisms were pre-cultured in each medium for 18 hours and the concentration of the microorganisms was adjusted to 84% T (≈1×10^8 CFU/mL) using a colorimeter (Product No. 52-1210, BioMerieux, Inc., USA). Then, 0.5 mL of the diluted microorganism solution was added to an underlay gel containing 9.5 mL of 0.03% TSB, 1% type I agarose and 10 mM phosphate buffer (PB; pH 6.5) and plated and solidified on a plate after mixing well. After boring a well with a diameter of 2.5 mm on the solidified plate using a punch, 5 μL of each analogue solution was introduced. All the analogues were dissolved in 5 μL of 0.01% acetic acid to avoid any effect of solvent. After the analogue permeated into the medium, the microorganisms were cultured for 3 hours and an overlay gel containing 10 mL of 6% TSB, 1% type I agarose and 10 mM phosphate buffer (pH 6.5) was poured and solidified. Then, the microorganisms were cultured again for 18 hours at the same temperature. Next day, the antimicrobial activity was determined by measuring the size (diameter) of a clear zone formed around the well. Piscidin 1, an antimicrobial peptide derived from the mast cells of a hybrid striped bass, was used as a control.

C. albicans = experiment: as above; assay type: cell-based, Candida albicans
Protocol: as §1

P. aeruginosa KCTC2004 = experiment: as above; assay type: cell-based, Pseudomonas aeruginosa; settings: P. aeruginosa KCTC2004, Gram −
Protocol: as §1

B. subtilis KCTC1021 = experiment: as above; assay type: cell-based, Bacillus subtilis; settings: B. subtilis KCTC1021, Gram +
Protocol: as §1

[1] = test system: Propionibacterium acnes KCTC11946; experiment: as above; assay type: cell-based; settings: Propionibacterium acnes KCTC11946, Gram +
Protocol: as §1

E. coli D31 = experiment: as above; assay type: cell-based; settings: E. coli D31, Gram −
Protocol: as §1

E. coli ML35p [2] = experiment: as above; assay type: cell-based; settings: Gram −
Protocol: as §1

[3] = test system: Shigella flexneri KCTC2009; experiment: as above; assay type: cell-based; settings: Shigella flexneri KCTC2009, Gram −
Protocol: as §1

[4] = test system: Vibrio parahaemolyticus KCCM42264; experiment: as above; assay type: cell-based
Protocol: as §1

S. epidermidis KCTC1917 = experiment: as above; assay type: cell-based, Staphylococcus epidermidis; settings: S. epidermidis KCTC1917, Gram +
Protocol: as §1

E. coli ML35p [5] = experiment: Chromogenic bacteriolytic plate assay; assay type: cell-based; settings: E. coli ML35p (FIG. 6)
Protocol: In order to investigate the lytic activity of the analogues for bacterial membrane, chromogenic bacteriolytic plate assay was conducted using E. coli ML35p containing a chromosomal IPTG-inducible β-galactosidase gene (Mardones, G., Venegas, A. Chromogenic plate assay distinguishing bacteriolytic from bacteriostatic activity of an antibiotic agent. J Microbiol Methods. 2000, 40(3), 199-206). After inoculating 2 mL of E. coli ML35p to TSB and culturing at 37° C. for 16-18 hours, a mixture of 50 μL of the cultured microorganism solution, 10 μL of 1 mM IPTG and 50 μL of 50 mg/mL X-gal was poured onto TSB containing 0.8% agarose at 42° C. the next day. After boring a well on the solidified plate, 5 μL of each peptide analogue solution was introduced and incubation was conducted for 3 hours. Then, after pouring 2×TSB containing 10 mL of 1.5% agarose to the plate and solidifying, incubation was conducted again for 16-18 hours. After the incubation, the size (diameter) of a clearing zone and the presence or absence of a blue line at the edge portion were investigated.

E. coli ML35p [6] = experiment: Killing kinetics study; assay type: cell-based
Protocol: For killing kinetics study of the analogues whose bactericidal process was identified, killing rate for each analogue was investigated at 1×MIC and 5×MIC for 60 minutes. For this, the analogue was added to an e-tube containing 10^6 CFU/mL of E. coli ML35p. While incubating at 37° C., 10 μL of the solution was taken from the tube at predetermined times (5, 10, 20, 30, 40, 50 and 60 minutes after the addition of the analogue) and plated on a TSA plate. Then, the number of formed colonies was counted. As control groups, no analogue or piscidin 1 was added. The killing % for the analogues was represented as the number of formed colonies relative to that when no analogue was added.

[7] = C. albicans KCCM42264 (as printed in Table 2), yeast

LLWKLLKKL [SEQ ID NO 4, LLWKLLKKL]
hemolytic activity (in words, FIG. 4) (human red blood cells): good hemolytic activity

AAWKLLKALAKA-NH2 [SEQ ID NO 1, AAWKLLKALAKA]
Minimal effective concentration (S. mutans KCCM40105): 20.3 µg/mL | Minimal effective concentration (C. albicans; [7]): 42.0 µg/mL | Minimal effective concentration (P. aeruginosa KCTC2004): 36.0 µg/mL | Minimal effective concentration (B. subtilis KCTC1021): 20.0 µg/mL | Minimal effective concentration [1]: 25.0 µg/mL | Minimal effective concentration (E. coli D31): 22.0 µg/mL | Minimal effective concentration (E. coli ML35p [2]): 23.0 µg/mL | Minimal effective concentration [3]: 28.0 µg/mL | Minimal effective concentration [4]: 26.3 µg/mL | Minimal effective concentration (S. epidermidis KCTC1917): 17.3 µg/mL

LLWKLLKKLLK-NH2 [SEQ ID NO 3, LLWKLLKKLLK]
Minimal effective concentration (S. mutans KCCM40105): 15.8 µg/mL | Minimal effective concentration (C. albicans; [7]): 15.0 µg/mL | Minimal effective concentration (P. aeruginosa KCTC2004): 15.2 µg/mL | Minimal effective concentration (B. subtilis KCTC1021): 14.0 µg/mL | Minimal effective concentration [1]: 14.5 µg/mL | Minimal effective concentration (E. coli D31): 19.4 µg/mL | Minimal effective concentration (E. coli ML35p [2]): 13.8 µg/mL | Minimal effective concentration [3]: 10.0 µg/mL | Minimal effective concentration [4]: 9.1 µg/mL | Minimal effective concentration (S. epidermidis KCTC1917): 17.2 µg/mL

LLWKLLKLLLK-NH2 [SEQ ID NO 2, LLWKLLKLLLK]
Minimal effective concentration (S. mutans KCCM40105): 16.3 µg/mL | Minimal effective concentration (C. albicans; [7]): 17.0 µg/mL | Minimal effective concentration (P. aeruginosa KCTC2004): 14.2 µg/mL | Minimal effective concentration (B. subtilis KCTC1021): 16.0 µg/mL | Minimal effective concentration [1]: 18.0 µg/mL | Minimal effective concentration (E. coli D31): 16.2 µg/mL | Minimal effective concentration (E. coli ML35p [2]): 12.1 µg/mL | Minimal effective concentration [3]: 11.6 µg/mL | Minimal effective concentration [4]: 14.0 µg/mL | Minimal effective concentration (S. epidermidis KCTC1917): 18.4 µg/mL

KAAAKAAKAA-NH2 (C-terminus assumed) [SEQ ID NO 6, KAAAKAAKAA]
Minimal effective concentration (S. mutans KCCM40105): >50.0 µg/mL | Minimal effective concentration (C. albicans; C. albicans KCTC7965, yeast): >50.0 µg/mL | Minimal effective concentration (P. aeruginosa KCTC2004): >50.0 µg/mL | Minimal effective concentration (B. subtilis KCTC1021): >50.0 µg/mL | Minimal effective concentration [1]: >50.0 µg/mL | Minimal effective concentration (E. coli D31): >50.0 µg/mL | Minimal effective concentration (E. coli ML35p [2]): >50.0 µg/mL | Minimal effective concentration [3]: >50.0 µg/mL | Minimal effective concentration [4]: >50.0 µg/mL | Minimal effective concentration (S. epidermidis KCTC1917): >50.0 µg/mL

FFHHIFRGIVHVGKTIHRLVTG-NH2 [Piscidin 1, reference compound]
Minimal effective concentration (S. mutans KCCM40105): 3.2 µg/mL | Minimal effective concentration (C. albicans; [7]): >62.5 µg/mL | Minimal effective concentration (C. albicans; C. albicans KCTC7965, yeast): >62.5 µg/mL | Minimal effective concentration (P. aeruginosa KCTC2004): 8.0 µg/mL | bacteriolytic activity: blue line at the edge portion of the clearing zone (E. coli ML35p [5]): showed an edge line | Minimal effective concentration (B. subtilis KCTC1021): 7.5 µg/mL | Minimal effective concentration (E. coli D31): 3.8 µg/mL | Minimal effective concentration (E. coli ML35p [2]): 2.3 µg/mL | Minimal effective concentration [3]: 8.0 µg/mL | Minimal effective concentration [4]: 3.0 µg/mL | time to kill E. coli ML35p (E. coli ML35p [6]; 1×MIC): ≤ 20 min | time to kill E. coli ML35p (E. coli ML35p [6]; 5×MIC): ≤ 5 min

KWLLKLLKKL [SEQ ID NO 10, KWLLKLLKKL]
hemolytic activity (in words, FIG. 4) (human red blood cells): good hemolytic activity

LKWLLKLLKLK-NH2 [SEQ ID NO 11, LKWLLKLLKLK]
Minimal effective concentration (S. mutans KCCM40105): 12.0 µg/mL | Minimal effective concentration (C. albicans; C. albicans KCTC7965, yeast): 10.0 µg/mL | Minimal effective concentration (P. aeruginosa KCTC2004): 8.7 µg/mL | Minimal effective concentration (B. subtilis KCTC1021): 12.1 µg/mL | Minimal effective concentration [1]: 13.1 µg/mL | Minimal effective concentration (E. coli D31): 14.1 µg/mL | Minimal effective concentration (E. coli ML35p [2]): 15.0 µg/mL | Minimal effective concentration [3]: 11.2 µg/mL | Minimal effective concentration [4]: 9.0 µg/mL | Minimal effective concentration (S. epidermidis KCTC1917): 16.0 µg/mL

[H]/N=C(/N)N[C@H]1[C@H](O)[C@@H](O)[C@H](O[C@@H]2O[C@@H](C)[C@](O)(C=O)[C@H]2O[C@@H]2O[C@@H](CO)[C@H](O)[C@@H](O)[C@@H]2NC)[C@@H](N/C(N)=N\[H])[C@@H]1O [streptomycin]
bacteriolytic activity: blue line at the edge portion of the clearing zone (E. coli ML35p [5]): showed a blue line at the edge portion

KLALKLLKLL-NH2 [SEQ ID NO 5, KLALKLLKLL]
Minimal effective concentration (S. mutans KCCM40105): 10.5 µg/mL | Minimal effective concentration (C. albicans; C. albicans KCTC7965, yeast): 14.4 µg/mL | Minimal effective concentration (P. aeruginosa KCTC2004): 19.9 µg/mL | Minimal effective concentration (B. subtilis KCTC1021): 15.2 µg/mL | Minimal effective concentration [1]: 16.6 µg/mL | Minimal effective concentration (E. coli D31): 17.5 µg/mL | Minimal effective concentration [3]: 17.9 µg/mL | Minimal effective concentration [4]: 8.1 µg/mL | Minimal effective concentration (S. epidermidis KCTC1917): 16.4 µg/mL

KLLLKLLKLL-NH2 [SEQ ID NO 7, KLLLKLLKLL]
Minimal effective concentration (S. mutans KCCM40105): 7.8 µg/mL | Minimal effective concentration (C. albicans; C. albicans KCTC7965, yeast): 12.1 µg/mL | Minimal effective concentration (P. aeruginosa KCTC2004): 11.2 µg/mL | Minimal effective concentration (B. subtilis KCTC1021): 11.2 µg/mL | Minimal effective concentration [1]: 11.9 µg/mL | Minimal effective concentration (E. coli D31): 13.2 µg/mL | Minimal effective concentration (E. coli ML35p [2]): 8.8 µg/mL | Minimal effective concentration [3]: 10.4 µg/mL | Minimal effective concentration [4]: 6.8 µg/mL | Minimal effective concentration (S. epidermidis KCTC1917): 8.8 µg/mL

KLLLKLLKKLL-NH2 [SEQ ID NO 8, KLLLKLLKKLL]
Minimal effective concentration (S. mutans KCCM40105): 7.4 µg/mL | Minimal effective concentration (C. albicans; C. albicans KCTC7965, yeast): 11.8 µg/mL | Minimal effective concentration (P. aeruginosa KCTC2004): 12.5 µg/mL | Minimal effective concentration (B. subtilis KCTC1021): 10.3 µg/mL | Minimal effective concentration [1]: 12.3 µg/mL | Minimal effective concentration (E. coli D31): 14.2 µg/mL | Minimal effective concentration (E. coli ML35p [2]): 9.8 µg/mL | Minimal effective concentration [3]: 10.7 µg/mL | Minimal effective concentration [4]: 7.1 µg/mL | Minimal effective concentration (S. epidermidis KCTC1917): 9.6 µg/mL

KLLKKLLKLL-NH2 [SEQ ID NO 9, KLLKKLLKLL]
Minimal effective concentration (S. mutans KCCM40105): 9.0 µg/mL | Minimal effective concentration (C. albicans; C. albicans KCTC7965, yeast): 14.0 µg/mL | Minimal effective concentration (P. aeruginosa KCTC2004): 17.8 µg/mL | Minimal effective concentration (B. subtilis KCTC1021): 15.7 µg/mL | Minimal effective concentration [1]: 18.5 µg/mL | Minimal effective concentration (E. coli D31): 18.9 µg/mL | Minimal effective concentration (E. coli ML35p [2]): 17.2 µg/mL | Minimal effective concentration [3]: 15.4 µg/mL | Minimal effective concentration [4]: 9.5 µg/mL | Minimal effective concentration (S. epidermidis KCTC1917): 14.0 µg/mL
